The source of these data is patent US5780589A, “Ultraselective opioidmimetic peptides and pharmacological and therapeutic uses thereof” (The United States of America as represented by the …, priority 1994, dated 1998).

Entries after “also recorded” stand apart in the source; their conditions may differ. Non-standard residues stand in square brackets, D forms with d. Residues, ends and D or L forms follow the SMILES beside them. Dmt = Cc1cc(O)cc(C)c1C[C@H](N)C(=O)O; Tic = O=C(O)[C@@H]1Cc2ccccc2CN1

For one experiment, the target named is T1, μ receptor (Rattus norvegicus, UniProt P33535).
T1 construct: Rat membrane synaptosome preparations (P2 fraction) were prepared as detailed previously; from tissue; host or cells: rat synaptosomal membranes (P2 fraction)
The experiment in a line: μ receptor binding, rat membrane synaptosomes, [3H]DAGO. The following applies: rat synaptosomes (P2), mean ± SEM. The method, then: (§1) Rat membrane synaptosome preparations (P2 fraction) were prepared as detailed previously, which included a preincubation step to reduce the presence of endogenous ligands and binding of G proteins (33,40). […] Samples were rapidly filtered through wetted glass fiber filters and thoroughly washed with 6 mL (3×2 mL) ice-cold 50 mM Tris-HCl, pH 7.5, containing 0.01-0.1% chicken egg albumin or bovine serum albumin. […] The filters were dried at 70° C. and the radioactivity determined after an overnight incubation period in CytoScint to maximize the radioactivity detected and reduce variability between samples. The IC50 values were converted to affinity constants (Ki) according to Cheng and Prusoff (48).

Another experiment concerns the target T2, δ receptor (Rattus norvegicus, UniProt P33533).
T2 construct: Rat membrane synaptosome preparations (P2 fraction) were prepared as detailed previously; from tissue; host or cells: rat synaptosomal membranes (P2 fraction)
The experiment in a line: Multi-site (one- vs two-site) δ receptor binding analysis. The method, then:
as §1
Multi-site binding analyses, based on stringent statistical methods, were performed as described in Bryant et al. (41) and Attila et al. (49). Receptor assays were conducted in triplicate with 25-35 graded concentrations of peptide; the resulting curves were both individually assessed and combined from several distinct assays, and analyzed using Prism™ (v. 1.02, GraphPad, San Diego, Calif.).

The target of a further experiment is δ receptors (Mus musculus, UniProt P32300). How it is done:
The in vitro pharmacological assays were undertaken using published methods (32) based on the organ bath technique of Kosterlitz and Watt (50). For μ receptors, a 2-3 cm segment of guinea-pig ileum (GPI) mounted in a 20 mL organ bath and for δ receptors, a single mouse vas deferens (MVD) was obtained from a mature animal.

In the next experiment the test system is mice. The experiment can be described thus: Tail flick test (TFT), analgesia and morphine antagonism in mice. In kind it is in vivo, CD-1 mice. The method, then:
Animal procedures were conducted under protocols approved by the Animal Use and Care Committee, NIEHS, an AALAC accredited facility. Tail flick test (TFT) used a radiant heat source on the tail of Fisher 344 rats or CD-1 mice (52). The response was standardized by the subcutaneous (sc) injection of 5 mg morphine sulfate/kilogram (Kg) body weight or 0.1-0.25 mg morphine/Kg body weight by iv injection; peptides were injected in 100 μL volume in sterile saline. […] Intrathecal injection of peptides in mice used the method of Hylden and Wilcox (53). A base-line and cut-off 10 sec were determined in the TFT with naive and morphine-dosed animals, respectively,to prevent damage to the tail. 1 μg to 10 mg per kilogram of animal was used for iv, icv or sc; higher doses in the mg range were used for sc injection.

Sequence of δ receptors (P32300 whole entry): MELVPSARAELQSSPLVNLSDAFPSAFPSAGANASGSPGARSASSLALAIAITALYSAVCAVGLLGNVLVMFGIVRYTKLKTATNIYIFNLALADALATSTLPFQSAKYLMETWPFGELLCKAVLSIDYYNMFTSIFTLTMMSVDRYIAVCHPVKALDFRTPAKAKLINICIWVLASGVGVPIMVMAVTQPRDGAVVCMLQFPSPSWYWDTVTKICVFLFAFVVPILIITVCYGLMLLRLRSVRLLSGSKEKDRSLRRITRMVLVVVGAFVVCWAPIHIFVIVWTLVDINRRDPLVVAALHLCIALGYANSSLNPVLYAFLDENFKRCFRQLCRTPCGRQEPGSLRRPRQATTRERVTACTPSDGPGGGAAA
T2 sequence (P33533 whole entry): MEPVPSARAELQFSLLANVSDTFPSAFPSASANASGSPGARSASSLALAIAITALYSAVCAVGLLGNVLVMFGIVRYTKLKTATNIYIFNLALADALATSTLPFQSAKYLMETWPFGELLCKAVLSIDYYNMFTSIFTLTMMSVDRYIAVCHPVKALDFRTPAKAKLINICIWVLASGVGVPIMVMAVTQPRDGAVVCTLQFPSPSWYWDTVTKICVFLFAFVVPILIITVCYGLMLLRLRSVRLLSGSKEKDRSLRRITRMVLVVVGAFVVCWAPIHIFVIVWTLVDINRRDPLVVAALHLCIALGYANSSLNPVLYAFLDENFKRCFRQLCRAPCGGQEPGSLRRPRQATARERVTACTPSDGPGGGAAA
T1 sequence (P33535 whole entry): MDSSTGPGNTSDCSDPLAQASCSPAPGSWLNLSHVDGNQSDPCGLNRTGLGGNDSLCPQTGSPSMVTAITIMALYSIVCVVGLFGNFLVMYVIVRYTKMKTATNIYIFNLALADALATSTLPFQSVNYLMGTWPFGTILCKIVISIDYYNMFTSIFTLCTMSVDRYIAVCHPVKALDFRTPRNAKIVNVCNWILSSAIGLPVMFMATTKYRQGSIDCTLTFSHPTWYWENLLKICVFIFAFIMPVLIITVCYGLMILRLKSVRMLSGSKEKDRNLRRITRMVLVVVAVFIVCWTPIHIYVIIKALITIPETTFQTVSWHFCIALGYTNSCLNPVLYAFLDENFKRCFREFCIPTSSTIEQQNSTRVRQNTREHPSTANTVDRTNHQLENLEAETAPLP

For the compound `Cc1cc(O)cc(C)c1C[C@H](N)C(=O)N1Cc2ccccc2C[C@H]1C(=O)O` [Peptide 1, Dmt-Tic-OH] (H-[Dmt]-[Tic]-OH; N-terminus assumed), the affinity at μ receptor corresponds to a Ki of 3320 nM. Besides, at δ receptor (one-site vs two-site), the “δ receptor binding model fitted” value is reported as “one-site binding model”. The Percent low-affinity sites on δ receptor (two-site δ receptor fit) was determined as 30.7 ± 91.5%. For the same compound, on δ receptors, the Kb was 6.31 nM. For the same compound, on δ receptors (concentration equivalent of pA2, against deltorphin C), the “MVD” value is listed as 5.7 nM. Also, the “antagonist properties in MVD bioassay” value at δ receptors (in vitro mouse vas deferens) was “antagonist properties”. Further, the “analgesia in tail flick test” value in the experiment with mice (iv, 100 ug/mouse where stated) is “no demonstratable analgesia; also recorded: no demonstrable analgesia”. Also, in the experiment with mice (morphine injected iv (0.25 mg/kg), peptide 100 ug/mouse iv), the “block of the effect of morphine in tail flick test” value was “completely blocked”.
